From patent US11958821B2, “Phenethylamine compounds salts, polymorphic forms and methods of use thereof” (Terran Biosciences Inc., priority 2021, dated 2024)
Read-outs that look alike come from different tables or passages of the source.

Assays:
[1] = system: Male Sprague-Dawley rats; experiment: Rat elevated zero-maze study with MDAI and chlordiazepoxide; format: in vivo
Procedure: Three rats from the vehicle group, 3 rats from the 2.5 mg/kg MDAI group, and 3 rats from the CDP group were tested on a separate day from the other rats.

[2] = system: Male Sprague-Dawley rats; experiment: Rat elevated zero-maze study with racemic MDE, R-MDE, S-MDE and chlordiazepoxide; details: positive control, 6 mg/kg ip
Procedure: A reduction in the amount of activity on the open areas is considered to reflect an increase in anxiety. The ethologically-based behavior, stretched attend postures (SAP) from closed to open quadrants, is assessed as an index of anxiety. […] Animals
(§1) Male Sprague-Dawley 200-250 g (Envigo UK) rats were used. Animals were group-housed (5 per cage; cage size: 40×40×20 cm) in a temperature-controlled environment (22±2° C.), under a 12 h light-dark cycle (lights on: 08:00 hours) for one week prior to testing. Food and water were freely available. Number of animals per group=5.
(§2) The elevated 0-maze comprises a black Perspex annular platform (105 cm diameter, 10 cm width) elevated to 65 cm above ground level, divided equally into four quadrants. Two opposite quadrants are enclosed by clear red Perspex walls (27 cm high) on both the inner and outer edges of the platform, while the remaining two opposite quadrants are surrounded only by a Perspex “lip” (1 cm high) which serves as a tactile guide to animals on these open areas.
Subjects were weighed and tail marked before being injected. After a specified pretreatment time, subjects were placed in a closed quadrant and a 5-min test period were recorded on videotape for subsequent analysis. The maze was cleaned with 5% methanol/water solution and dried thoroughly between test sessions. Behavioural measures comprise percentage time spent on the open areas (% TO) and frequency of stretched attend postures (SAP) from closed to open quadrants. Animals are scored as being in the open area when all four paws were in an open quadrant and in the closed area only when all four paws have passed over the open-closed divide.
Thirty min later at T=0, rats were individually placed in a closed arm of the zero-maze and behavior was assessed by a “blind” observer using remote video monitoring over the subsequent 5 min. The animal was then removed and the maze carefully wiped with 5% methanol/water solution before the next test was begun.
Thirty min later at T=0, rats were individually placed in a closed arm of the zero-maze and behavior assessed by a “blind” observer using remote video monitoring over the subsequent 5 min. The animal was then removed and the maze carefully wiped with 5% methanol/water solution before the next test was begun.

[3] = system: Male Sprague-Dawley rats; experiment: Rat elevated zero-maze study with racemic MBDB, R-MBDB, S-MBDB and chlordiazepoxide; details: positive control, 6 mg/kg ip
Text: Two opposite quadrants are enclosed by Perspex walls on both the inner and the outer edges of the platform, while the remaining two opposite quadrants are open being enclosed only by a Perspex “lip”. Animals will show a preference for the closed areas, and avoidance of the open sections is assumed to stem from a rodent's natural aversion to open, exposed spaces. A reduction in the amount of activity on the open areas is considered to reflect an increase in anxiety. The ethologically-based behavior stretched attend postures (SAP) from closed to open quadrants is assessed as an index of anxiety. […] Animals
as §1, §2
Subjects were weighed and tail marked before being injected. After a specified pretreatment time, subjects were placed in a closed quadrant and a 5-min test period were recorded on videotape for subsequent analysis. The maze was cleaned with 5% methanol/water solution and dried thoroughly between test sessions. Behavioural measures comprise percentage time spent on the open areas (% TO) and frequency of stretched attend postures (SAP) from closed to open quadrants. Since the control groups were all treated identically with the same vehicle these were combined to increase power. The Chlordiazepoxide groups were also treated identically with the same dose so these were also combined to increase power. Animals are scored as being in the open area when all four paws were in an open quadrant and in the closed area only when all four paws have passed over the open-closed divide.
Thirty min later at T=0, rats were individually placed in a closed arm of the zero-maze and behavior assessed by a “blind” observer using remote video monitoring over the subsequent 5 min. The animals were then removed and the maze carefully wiped with 5% methanol/water solution before the next test was begun.
Thirty min later at T=0, rats were individually placed in a closed arm of the zero-maze and behavior was assessed by a “blind” observer using remote video monitoring over the subsequent 5 min. The animal were then removed and the maze carefully wiped with 5% methanol/water solution before the next test was begun.
Thirty min later at T=0, rats were individually placed in a closed arm of the zero-maze and behavior was assessed by a “blind” observer using remote video monitoring over the subsequent 5 min.

[4] = Hygroscopicity of MDMA salts at 75% RH, visual assessment after 24 hours; format: physicochemical; details: visual assessment after exposure to 75% RH (room temp) for 24 hours
Procedure: A small amount of each salt was placed in a glass vial and exposed to 75% relative humidity for 24 hours. […] That is, the solids remained free flowing.
All materials having a unique X-ray powder diffraction (XRPD) pattern were characterized by differential scanning calorimetry (DSC), thermogravimetric analysis (TG), and ^1H nuclear magnetic resonance (NMR) spectroscopy. The hygroscopicity of each salt at 75% RH was also evaluated. The water solubility of each salt was estimated by adding water in aliquots to weighed portions of solid at room temperature while sonicating. Whether dissolution had occurred was judged by visual inspection after addition of each solvent aliquot. Solubility numbers were calculated by dividing the weight of the sample by the total amount of solvent used to dissolve the sample. The actual solubilities may be greater than the numbers calculated because of the use of solvent aliquots that were too large or because of slow dissolution rates.

[5] = Estimated solubility of MDMA salts (solvent added in aliquots, visual inspection); format: physicochemical
[6] = Dynamic vapor sorption (DVS) analysis with post-DVS XRPD; format: physicochemical; details: for Hygroscopicity by DVS: 25° C., 5 to 95% RH
Procedure: DVS analysis was carried out using a TA Instruments Q5000 Dynamic Vapor Sorption analyzer. The instrument was calibrated with standard weights and a sodium bromide standard for humidity. Approximately 5-25 mg of sample was loaded into a metal-coated quartz pan for analysis. The sample was analyzed at 25° C. with a maximum equilibration time of one hour in 10% relative humidity (RH) steps from 5 to 95% RH (adsorption cycle) and from 95 to 5% RH (desorption cycle). The movement from one step to the next occurred either after satisfying the equilibrium criterion of 0.01% weight change or, if the equilibrium criterion was not met, after one hour. The percent weight change values were calculated using Microsoft Excel®.

[7] = cited from earlier work
[8] = cited from earlier work; remark: listed apart in the source
[9] = system: participants diagnosed with at least moderate post-traumatic stress disorder (PTSD); experiment: Double-blind, randomized, placebo-controlled clinical trial of MDAI-assisted psychotherapy in PTSD; format: in vivo, human
Procedure: A multicenter, randomized, double-blind, placebo-controlled trial is conducted to assess the efficacy and safety of MDAI-assisted psychotherapy versus psychotherapy with placebo control in participants diagnosed with at least moderate post-traumatic stress disorder (PTSD).
This multicenter, randomized, double-blind, placebo-controlled trial is conducted at various sites in the United States with IRB approval from each study site. A flexible dose of MDAI hydrochloride salt or placebo, followed by a supplemental half-dose unless contraindicated by patient's previous response or medical history, is also administered during the Treatment Period with psychotherapy in at least 3 blinded monthly Experimental Sessions. The Supplemental Dose extends the duration of drug effects on the participants during an Experimental Session. An optional Risk Evaluation and Mitigation Strategy (REMS) Protocol may be implemented for MDAI and placebo-groups. The Treatment Period lasts for approximately 12 weeks. During the Treatment Period, each Experimental Session is followed by three Intervening Sessions of non-drug psychotherapy. Each Experimental Session involves an overnight stay. The Primary Outcome measure, the change in Clinician Administered PTSD Scale for DSM-5 (CAPS-5), is determined by a blinded Independent Rater (IR) pool multiple times throughout the study. The study consists of separate periods for each participant. Initially, prospective participants undergo a Screening Period involving an initial eligibility assessment, a medical history intake, informed consent, and enrollment of eligible participants. Next, a Preparation Period is undertaken for enrolled participants involving medication tapering and clinical baseline assessments to confirm each participant meets enrollment criteria. As part of the Preparation Period, a detailed assessment of co-morbidities to PTSD is recorded. Participants may remain on prescribed courses of selective serotonin reuptake inhibitor (SSRI) or serotonin and norepinephrine reuptake inhibitor (SNRI) treatment. Dosages and/or frequency of administration of a prescribed SSRI or SNRI may be adjusted to fit within study parameters. Participants may be required to taper a prescribed course of medication in order to maintain eligibility within the study. The Treatment Period consists of three monthly Experimental Sessions and associated Intervening Sessions of integrative behavioral psychotherapy. The Treatment Period lasts approximately 12 weeks. Following the Treatment Period is a Follow-up Period and Study Conclusion. During the Follow-up Period and Study Conclusion, participants complete 4 weeks with no study visits, followed by a Study Conclusion visit.
This study compares the effects of three blinded Experimental Sessions of psychotherapy in combination with flexible doses of MDAI or placebo administered as described below. Non-drug preparatory and intervening psychotherapy sessions are also included. Patient's weight is determined for dosage calculation. Initial dose is 100 mg unless this will result in a dosage of less than 1.5 mg/kg of patient weight. Initial dose thereby adjusted upward in 50 mg increments to deliver the lowest dose possible of at least 1.5 mg/kg of patient weight. Initial dose for Experimental Session 2 and 3 is cumulative dose calculated by adding the initial dose plus REMS protocol dose used the previous Experimental Session for each patient.
Randomization occurs prior to the initiation of Experimental Session 1. […]

[10] = Solid-form stability of MBDB maleate forms (ball milling, drying, interconversion slurry); format: physicochemical; details: mixture of Maleate 3 and Maleate 1 dried at 46° C. overnight; recovered solids Maleate 1
Procedure: During the screen, a single crystal Maleate 1 of sufficient size and quality was obtained from a vapor diffusion experiment with ethanol and hexane. The crystal structure is reported elsewhere but the data confirmed the anhydrous/unsolved nature of the material. […] Two new crystalline forms of MBDB Maleate were observed during the screening designated as MBDB Maleate 2 and MBDB Maleate 3 (FIG. 96, 97). Additional characterization of these samples was conducted to better understand the nature of the materials produced, as shown below. MBDB Maleate 2 was generated once from a cooling crystallization from dioxane. The proton nuclear magnetic resonance (NMR) spectrum was consistent with a monomaleate salt of MBDB and contained residual dioxane. Only a limited amount of material was recovered so the only additional characterization that could be completed was differential scanning calorimetry (DSC). The DSC thermogram appears consistent with an anhydrous/unsolvated form with a likely melt at 96° C. (FIG. 100). […] An attempt was made to reproduce Maleate 2 using the same conditions and seeds of Maleate 2. PXRD analysis of the recovered solids however was consistent with Maleate 1. MBDB Maleate 3 was isolated from an evaporation experiment involving chloroform and ethyl acetate. NMR analysis of the material was consistent with a mono-maleate salt of MBDB. […]

[11] = oral, people, MDAI Dosages (psychonautwiki)

SMILES: CNC1=Nc2ccc(Cl)cc2C(c2ccccc2)=[N+]([O-])C1 [CDP, Chlordiazepoxide, reference compound]
- Frequency of HDIPS ([1]; positive control, 6 mg/kg ip): trend towards increased
- Percentage of time in the open arms (% TO) ([1]; positive control, 6 mg/kg ip): significant increase in the percentage of time in the open arms
- Total line crossings ([1]; positive control, 6 mg/kg ip): trend towards increased
- Total open arm entries ([1]; positive control, 6 mg/kg ip): trend towards increased
- Frequency of stretched attend postures (SAP) [2]: significant reduction in SAPs
- Percentage of time spent in the open arms (% TO) [2]: significant increase in time in the open arms for the R MDE group and S MDE group only
- Frequency of stretched attend postures (SAP) [3]: significant reduction in SAPs
- Percentage of time in the open arms (% TO) [3]: did not show significance over vehicle

SMILES: CNC(C)Cc1ccc2c(c1)OCO2.CNC(C)Cc1ccc2c(c1)OCO2.O=C(O)/C=C/C(=O)O (stereo not drawn) [Fumarate]
- Hygroscopic at 75% RH? [4]: no evidence of hygroscopicity and No
- Solubility ([5]; 1,4-dioxane): <1000 µg/mL
- Solubility ([5]; 1:1 MeOH:chloroform (CHCl3)): 35000 µg/mL
- Solubility ([5]; 2-propanol (IPA)): <1000 µg/mL
- Solubility ([5]; 95:5 ACN:water): 4000 µg/mL
- Solubility ([5]; 95:5 EtOH:water): 15000 µg/mL
- Solubility ([5]; 95:5 IPA:water): 5000 µg/mL
- Solubility ([5]; 95:5 THF:water): 14000 µg/mL
- Solubility ([5]; 95:5 acetone:water): 2000 µg/mL
- Solubility ([5]; 95:5 dioxane:water): 6000 µg/mL
- Solubility ([5]; acetone): <1000 µg/mL
- Solubility ([5]; acetonitrile (ACN)): <1000 µg/mL
- Solubility ([5]; dichloromethane (DCM)): <1000 µg/mL
- Solubility ([5]; diethyl ether (Et2O)): <1000 µg/mL
- Solubility ([5]; ethanol (EtOH)): 4000 µg/mL
- Solubility ([5]; ethyl acetate (EtOAc)): <1000 µg/mL
- Solubility ([5]; methanol (MeOH)): 47000 µg/mL
- Solubility ([5]; tetrahydrofuran (THF)): <1000 µg/mL
- Solubility ([5]; water): 260000 µg/mL
- Hygroscopicity by DVS ([6]; listed as MDMA Hemi-Fumarate): Slightly hygroscopic
- Hygroscopicity by DVS ([6]; listed as MDMA hemi-fumarate): slightly hygroscopic
- Post-DVS XRPD (form change) ([6]; solids after DVS analysis): Unchanged

SMILES: CNC(C)Cc1ccc2c(c1)OCO2.CNC(C)Cc1ccc2c(c1)OCO2.O=C(O)[C@@H](O)[C@H](O)[C@H](O)[C@@H](O)C(=O)O (stereo not drawn) [Galactarate (Mucate)]
- Hygroscopic at 75% RH? [4]: no evidence of hygroscopicity and No

SMILES: CCC(Cc1ccc2c(c1)OCO2)NC (stereo not drawn) [MBDB, 1-(benzo[d][1,3]dioxol-5-yl)-N-methylbutan-2-amine]
- Effects: Coming Down, Time After Dose ([7]; Duration of effects of MBDB in people, adapted from PiHKAL 1991): ~90 min
- Reported time to achieve peak effects ([7]; after dosing): 0.75 to 1 h
- Oral MBDB Dose, Drug Activity Level: Very Strong ([7]; oral, people): ≥350 mg
- Oral dose for Drug Activity Level Threshold [8, 11]: 40 mg
- Oral dose for drug activity level Very Strong [8, 11]: ≥300 mg

SMILES: NC1Cc2cc3c(cc2C1)OCO3 [MDAI, 5,6-methylenedioxy-2-aminoindane]
- Percentage of time in the open arms (% TO) ([1]; 0.625 mg/kg ip): numerical increase in % TO that was greater than vehicle or any other dose of MDAI
- Percentage of time in the open arms (% TO) ([1]; doses too low or too high (0.15, 0.31, 1.25, 2.5)): opposite effect on % TO
- Total open arm entries ([1]; higher and lower doses): trended towards an anxiogenic effect
- Total open arm entries ([1]; middle dose): increase vs placebo that trended towards significance
- Daytime sleepiness (ESS) ([9]; Study Conclusion): significant improvement in lessening daytime sleepiness
- Clinician-rated functional impairment score (SDS) ([9]; Study Conclusion, vs placebo): significant improvement in clinician-rated functional impairment score
- Depression (HAM-D) ([9]; Study Conclusion, vs placebo): significant improvement depression
- Change in CAPS-5 assessment ([9]; Study Conclusion, vs placebo, hydrochloride salt with psychotherapy): significant mean reduction in CAPS-assessment compared to the placebo group
- Adverse anxiogenic incidents ([9]; vs placebo-treated controls): without a significant increase in adverse anxiogenic incidents
- Reported time to achieve peak effects ([8]; after dosing): 0.75 to 2 h

SMILES: CCC(Cc1ccc2c(c1)OCO2)NC.O=C(O)/C=C\C(=O)O (stereo not drawn) [Maleate 3]
- Form stability on drying (PXRD) [10]: metastable under these conditions

SMILES: CNC(C)Cc1ccc2c(c1)OCO2.O=C(O)/C=C\C(=O)O (stereo not drawn) [Maleate Form 1]
- Hygroscopic at 75% RH? [4]: No

SMILES: CNC(C)Cc1ccc2c(c1)OCO2.O=C(O)/C=C\C(=O)O (stereo not drawn) [Maleate Form 2]
- Hygroscopic at 75% RH? [4]: No

SMILES: CNC(C)Cc1ccc2c(c1)OCO2.O=P(O)(O)O.O=P(O)(O)O (stereo not drawn) [Phosphate]
- Hygroscopic at 75% RH? [4]: no evidence of hygroscopicity and No

SMILES: CNC(C)Cc1ccc2c(c1)OCO2.O=C(O)CCC(=O)O (stereo not drawn) [Succinate]
- Hygroscopic at 75% RH? [4]: No
